According to ChEMBL document CHEMBL1201862, “PubChem BioAssay data set” (2004):
The source made the active and inactive calls.

What was measured:
Caspase-3 = target: T1, Caspase-3 (Homo sapiens, UniProt P42574); format: functional;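 further: Dose-response selectivity test against caspase-3 for candidate inhibitors of sentrin-specific proteases (SENPs)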
T1 sequence (P42574 whole entry): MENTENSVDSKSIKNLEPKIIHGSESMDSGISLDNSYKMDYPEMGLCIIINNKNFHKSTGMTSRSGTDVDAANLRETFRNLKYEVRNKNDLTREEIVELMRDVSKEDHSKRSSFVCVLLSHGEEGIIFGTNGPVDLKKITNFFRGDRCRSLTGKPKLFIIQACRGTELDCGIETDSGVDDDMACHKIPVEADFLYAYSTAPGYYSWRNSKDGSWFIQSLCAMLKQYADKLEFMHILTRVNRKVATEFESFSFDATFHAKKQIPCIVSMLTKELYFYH

[1] = target: T2, Sentrin-specific protease 8 (Homo sapiens, UniProt Q96LD8); format: functional;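 further: luminescence read-out of SENP8 inhibition, dose-response confirmation following an ultra-high-throughput screen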
T2 sequence (Q96LD8 whole entry): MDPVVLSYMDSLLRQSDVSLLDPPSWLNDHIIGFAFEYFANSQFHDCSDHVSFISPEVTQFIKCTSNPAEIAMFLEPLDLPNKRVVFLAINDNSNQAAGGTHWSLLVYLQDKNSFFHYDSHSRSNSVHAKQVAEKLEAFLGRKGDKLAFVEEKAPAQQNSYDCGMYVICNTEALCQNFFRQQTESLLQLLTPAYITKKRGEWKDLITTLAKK

Protein RecA = target: T3, Protein RecA (Mycobacterium tuberculosis, UniProt P9WHJ3); test: Fluorescence Cell-Free Homogeneous Dose Retest to Identify Inhibitors of RecA-Intein Splicing Activity. [Related pubchem assays (depositor defined):AID2097, AID2223, AID489010, AID492950]; format: functional
T3 sequence (P9WHJ3 whole entry): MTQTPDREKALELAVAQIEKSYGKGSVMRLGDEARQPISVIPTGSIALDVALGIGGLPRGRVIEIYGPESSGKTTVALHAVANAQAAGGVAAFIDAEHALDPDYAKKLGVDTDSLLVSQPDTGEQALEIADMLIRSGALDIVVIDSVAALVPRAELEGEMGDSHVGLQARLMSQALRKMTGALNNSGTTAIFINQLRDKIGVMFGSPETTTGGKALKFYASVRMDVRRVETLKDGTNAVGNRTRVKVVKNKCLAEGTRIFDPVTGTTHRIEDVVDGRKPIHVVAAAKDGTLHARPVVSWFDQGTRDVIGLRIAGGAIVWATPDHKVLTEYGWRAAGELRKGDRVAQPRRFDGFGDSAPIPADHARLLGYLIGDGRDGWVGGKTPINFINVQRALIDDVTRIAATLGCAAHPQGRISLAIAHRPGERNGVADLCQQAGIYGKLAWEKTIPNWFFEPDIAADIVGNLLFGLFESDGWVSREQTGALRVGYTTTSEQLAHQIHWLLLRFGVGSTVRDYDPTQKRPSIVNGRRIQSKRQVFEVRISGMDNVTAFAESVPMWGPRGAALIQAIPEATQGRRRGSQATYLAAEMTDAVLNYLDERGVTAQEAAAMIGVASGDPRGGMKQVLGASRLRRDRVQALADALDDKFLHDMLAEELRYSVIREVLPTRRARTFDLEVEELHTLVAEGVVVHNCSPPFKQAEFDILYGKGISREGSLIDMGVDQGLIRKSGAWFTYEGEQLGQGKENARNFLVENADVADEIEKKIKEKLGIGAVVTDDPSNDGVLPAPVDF

[2] = target: T4, Tyrosyl-DNA phosphodiesterase 2 (Homo sapiens, UniProt O95551); test: potency against TDP2 phosphodiesterase activity – biochemical, epi absorbance, IC50, dose response (AID 743297)
T4 sequence (O95551 whole entry): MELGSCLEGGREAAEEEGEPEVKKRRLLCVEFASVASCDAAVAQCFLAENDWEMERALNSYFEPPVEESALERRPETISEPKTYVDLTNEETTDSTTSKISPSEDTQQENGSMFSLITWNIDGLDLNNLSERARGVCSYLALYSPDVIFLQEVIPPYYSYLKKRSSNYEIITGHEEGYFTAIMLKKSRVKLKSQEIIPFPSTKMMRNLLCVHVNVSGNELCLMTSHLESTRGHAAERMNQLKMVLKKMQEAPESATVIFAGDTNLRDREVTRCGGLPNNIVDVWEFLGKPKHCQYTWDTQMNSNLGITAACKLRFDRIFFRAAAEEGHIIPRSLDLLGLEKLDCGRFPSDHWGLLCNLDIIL

COc1ccc(NC(=S)Nc2ccc3nsnc3c2)cc1
active: IC50 (Caspase-3) 7.54 µM | IC50 [1] 2.74 µM | EC50 (Protein RecA) 17.5 µM | IC50 [2] 9.93 µM

CC(C)(C)c1cc[n+](C2=C([N-]S(=O)(=O)c3ccccc3)C(=O)c3ccccc3C2=O)cc1
active: IC50 (Caspase-3) 76.7 µM | IC50 [1] 13.6 µM | EC50 (Protein RecA) 9.39 µM

O=C1C(=O)c2ccccc2C(O)=C1CCCCl
active: IC50 (Caspase-3) 37.8 µM | IC50 [1] 14.4 µM | EC50 (Protein RecA) 6.39 µM

O=C1C=C(Nc2ccccc2C(=O)O)c2ccccc2C1=O
active: IC50 (Caspase-3) 4.8 µM | IC50 [1] 3.3 µM | EC50 (Protein RecA) 2.34 µM | IC50 [2] 6.56 µM
